Assay results reported in patent US20110244503A1, “System and Method for Anti-Cancer Drug Candidate Evaluation” (priority 2010, published 2011).

Key:
[1] = system: ovarian cancer cell line, CAOV-3; test: MiCK-type spectrophotometric apoptosis assay, CAOV-3 cells; type: cell-based; conditions: as Example 1 but with higher drug concentrations, above 3 kinetic units = positive response
Protocol: Cancer cells were obtained from exponentially growing cultures in RPMI 1640 medium without phenol red supplemented with 10% heat-inactivated fetal bovine serum, 100 U/ml penicillin and 100 μg/mL streptomycin (complete medium) in humidified air with 5% CO2 at 37° C. Cells were harvested, washed with pre-warmed medium and resuspended in complete medium. Appropriate cell counts and viability were tested.
Cells from each cell line in complete medium were placed in wells of a 96-well plate at a concentration of 2 to 5×10^5 cells/ml. Various dilutions of the drug candidate, Idarubicin, were added to the wells in 5 μL aliquots. Final concentrations for the drug candidate were 0.01, 0.1, 0.5, 1, 5, 10 and 20 μM. The plates were incubated at 37° C. for 30 minutes in a humidified 5% CO2 atmosphere. After this adjustment period, 30 μl of sterile mineral oil was layered on top of each well. The microtiter plate was placed in an incubated spectrophotometer chamber (37° C.) and OD at 600 nm was measured every 5 minutes for a period of 48 hours. The reader was calibrated to zero absorbance using well containing only complete medium and no cells. All tests were performed in triplicate.
Data acquisition and computation was performed using appropriate software. OD readings were plotted against time to provide a kinetic representation of cell responses to the drugs and drug candidate. Kinetic units were calculated for each test well. A kinetic unit below […] was considered a negative response and above 3 was considered a positive response. A kinetic unit between 1.5 and 3 was considered a marginal response.
A variety of anti-cancer drugs were tested against a single ovarian cancer cell line, CAOV-3, to determine their suitability for use against ovarian cancer. Tests were performed in a manner similar to those in Example 1, but with higher drug concentrations.

[2] = system: HL60, an acute promyelocytic leukemia cell line; test: MiCK-type spectrophotometric apoptosis assay, HL60 cells; type: cell-based, human; conditions: HL-60 cells
Protocol: (§1) Spectrophotometric data may be converted to kinetic units. Kinetic units are determined by the slope of the curve created when the change in the OD at 600 nm caused by cell blebbing is plotted as a function of time. Specific information regarding the calculation of kinetic units is provided in Kravtsov, Vladimir D. et al., Use of the Microculture Kinetic Assay of Apoptosis to Determine Chemosensitivities of Leukemias, Blood 92:968-980 (1998), incorporated by reference herein. Optical density for a given drug candidate at a given concentration may be plotted against time. This plot gives a distinctive increasing curve if the cells are undergoing apoptosis. […] (FIG. 3.) Cell death due to reasons other than apoptosis can also be determined by the current assay and is useful in eliminating false positives from drug candidate screening. […]
(§2) Vmax is the maximum kinetic rate, which is the slope of the steep increase in the OD v. time plot when cells are undergoing apoptosis. […] ODcell is the initial OD of the control containing cells and ODblank is the initial OD of a blank well containing only medium or medium and drug (the drug may be omitted for some drugs, but for colored drugs in particular it may be included in the blank). y is a coefficient dependent on the cell type being assayed and may be determined experimentally through observation of the cell lines. […]

[3] = system: JURL-MK2, a chronic myeloid leukemia in blast crisis; test: MiCK-type spectrophotometric apoptosis assay, JURL-MK2 cells; type: cell-based, human; conditions: 0.01-20 μM, OD at 600 nm every 5 minutes for 48 hours, above 3 = positive response
Protocol: as §1, §2

[4] = system: MOLT-3, an acute T-cell lymphoblastic leukemia; test: MiCK-type spectrophotometric apoptosis assay, MOLT-3 cells; type: cell-based, human; conditions: 0.01-20 μM
Protocol: as §1, §2

[5] = system: RAMOS, a B cell line derived from Burkitt's lymphoma; test: MiCK-type spectrophotometric apoptosis assay, RAMOS cells; type: cell-based, human; conditions: 0.01-20 μM
Protocol: as §1, §2

For `CCc1c2c(nc3ccc(OC(=O)N4CCC(N5CCCCC5)CC4)cc13)-c1cc3c(c(=O)n1C2)COC(=O)[C@]3(O)CC` [Irinotecan], the “response / suitability (in words)” value [1] was “need to use high concentrations of the drug to achieve a positive response”.

In the case of `COc1cccc2c1C(=O)c1c(O)c3c(c(O)c1C2=O)C[C@@](O)(C(C)=O)C[C@@H]3O[C@H]1C[C@H](N)[C@H](O)[C@H](C)O1` [Daunorubicin], the “response / suitability (in words)” value [1] is reported as “positive response at reasonable concentrations”.

`CCC1=C[C@@H]2CN(C1)Cc1c([nH]c3ccccc13)[C@@](C(=O)OC)(c1cc3c(cc1OC)N(C)[C@H]1[C@@](O)(C(=O)OC)[C@H](OC(C)=O)[C@]4(CC)C=CCN5CC[C@]31[C@@H]54)C2` [Vinorelbine] was tested, and the “response / suitability (in words)” value [1] was “not suitable drugs for treating ovarian cancer”.

In the case of `O=C1c2c(O)ccc(O)c2C(=O)c2c(NCCNCCO)ccc(NCCNCCO)c21` [Mitoxantrone], the “response / suitability (in words)” value [1] is reported as “positive response at reasonable concentrations”.

In the case of `O=C1[O][Pt]2([NH][C@@H]3CCCC[C@H]3[NH]2)[O]C1=O` [Oxaliplatin], the “response / suitability (in words)” value [1] is reported as “not suitable drugs for treating ovarian cancer”.

In the case of `CC(=O)[C@]1(O)Cc2c(O)c3c(c(O)c2[C@@H](O[C@H]2C[C@H](N)[C@H](O)[C@H](C)O2)C1)C(=O)c1ccccc1C3=O` [Idarubicin, 4-demethoxydaunorubicin], the maximal response ([2]; 0.01-20 μM, 48 hours, between 1.5 and 3 = marginal response) is reported as 2.3 kinetic units, the “drug sensitivity (in words)” value ([2]; threshold 3 kinetic units) is reported as “only marginal sensitivity” and the apoptotic response [3] is reported as “exceeding 3 kinetic units”. For the same compound, the “concentration dependence of kinetic unit readings (in words)” value [4] was “higher kinetic unit readings at lower concentrations”, the apoptotic response ([4]; OD at 600 nm every 5 minutes for 48 hours, above 3 = positive response) was “exceeding 3 kinetic units” and the “response / suitability (in words)” value [1] was “positive response at reasonable concentrations”. For the same compound, the apoptotic response ([5]; RAMOS cells, OD at 600 nm every 5 minutes for 48 hours, above 3 = positive response) was “exceeding 3 kinetic units” and the “concentration dependence of response (in words)” value ([5]; Ramos cells) was “positive response was seen in the Ramos cell line only at high concentrations”.

In the case of `CO[C@@]12[C@H](COC(N)=O)C3=C(C(=O)C(C)=C(N)C3=O)N1C[C@@H]1N[C@@H]12` [Mitomycin], the “response / suitability (in words)” value [1] is reported as “positive response at reasonable concentrations”.
